# Experimental data reported in ChEMBL document CHEMBL1126964, “Antibacterial activity of long-chain alcohols: the role of hydrophobic alkyl groups” (1993).
# Experiments:
# [1] = system: Cutibacterium acnes; assay: Minimum inhibitory concentration against Propionibacterium acnes was determined; format: functional
# [2] = system: Staphylococcus aureus; assay: Minimum inhibitory concentration against Staphylococcus aureus was determined; format: functional
MIC [1],MIC [2],SMILES
25 µg/mL,50 µg/mL,CC(C)=CCC/C(C)=C/CCC(C)O (stereo not given)
1.56 µg/mL,> 800 µg/mL,CC(C)=CCC/C(C)=C/CC/C(C)=C/CCC(C)O (stereo not given)
0.78 µg/mL,> 800 µg/mL,CCCCCCCCCCCCCCCO
> 800 µg/mL,> 800 µg/mL,CCCCCCCCCCCCCCCCCO
> 800 µg/mL,> 800 µg/mL,CCCCCCCCCCCCCCCCCCCCO [1-EICOSANOL]
400 µg/mL,> 800 µg/mL,CCCCCCCO [1-HEPTANOL]
> 800 µg/mL,> 800 µg/mL,CCCCCCO [1-HEXANOL]
> 800 µg/mL,> 800 µg/mL,CCCCCCCCCCCCCCCCCCO [CETOSTEARYL ALCOHOL]
0.78 µg/mL,> 800 µg/mL,CCCCCCCCCCCCCCCCO [CETYL ALCOHOL]
25 µg/mL,50 µg/mL,CCCCCCCCCCO [DECANOL]
3.13 µg/mL,6.25 µg/mL,CCCCCCCCCCCCO [DODECANOL]
6.25 µg/mL,6.25 µg/mL,CC(C)=CCC/C(C)=C/CC/C(C)=C/CO [FARNESOL]
400 µg/mL,800 µg/mL,CC(C)=CCC/C(C)=C/CO [GERANIOL]
> 800 µg/mL,> 800 µg/mL,C=CC(C)(O)CCC=C(C)C (stereo not given) [LINALOOL]
25 µg/mL,50 µg/mL,C=CC(C)(O)CC/C=C(\C)CCC=C(C)C (stereo not given) [NEROLIDOL]
100 µg/mL,200 µg/mL,CCCCCCCCCO [NONANOL]
200 µg/mL,800 µg/mL,CCCCCCCCO [OCTANOL]
1.56 µg/mL,> 800 µg/mL,CCCCCCCCCCCCCO [TRIDECAN-1-OL]
12.5 µg/mL,25 µg/mL,CCCCCCCCCCCO [UNDECANOL]

SMILES,MIC [1],MIC [2]
CCCCCCCCCCCCCCO [MYRISTYL ALCOHOL],1.56 µg/mL,> 800 µg/mL
